Data reported in PubChem BioAssay (NCI).
Where “and” joins values, the source holds several entries; their conditions need not be identical. Identical values can stand only once.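 Each compound was tested at five concentrations against cells in 96-well plates for 48 hours. GI50 marks 50% less growth. TGI is the concentration that stops growth completely.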

Legend:
Assay in all cases: DTP human tumour cell line panel, 48 h
UO-31 renal = test system: UO-31 renal
A498 renal = test system: A498 renal
NCI-H23 lung = test system: NCI-H23 lung
OVCAR-5 ovarian = test system: OVCAR-5 ovarian
SF-295 CNS = test system: SF-295 CNS
UACC-62 melanoma = test system: UACC-62 melanoma
CAKI-1 renal = test system: CAKI-1 renal
IGROV1 ovarian = test system: IGROV1 ovarian
UACC-257 melanoma = test system: UACC-257 melanoma
SF-539 CNS = test system: SF-539 CNS

| Compound | TGI (UO-31 renal) [µM] | TGI (A498 renal) [µM] | TGI (NCI-H23 lung) [µM] | TGI (OVCAR-5 ovarian) [µM] | TGI (SF-295 CNS) [µM] | TGI (UACC-62 melanoma) [µM] | TGI (CAKI-1 renal) | TGI (IGROV1 ovarian) [µM] | TGI (UACC-257 melanoma) [µM] | TGI (SF-539 CNS) [µM] | GI50 (UO-31 renal) [µM] | GI50 (A498 renal) [µM] | GI50 (NCI-H23 lung) [µM] | GI50 (OVCAR-5 ovarian) [µM] | GI50 (SF-295 CNS) [µM] | GI50 (UACC-62 melanoma) [µM] | GI50 (CAKI-1 renal) [µM] | GI50 (IGROV1 ovarian) [µM] | GI50 (UACC-257 melanoma) [µM] | GI50 (SF-539 CNS) [µM] |
| --- | --- | --- | --- | --- | --- | --- | --- | --- | --- | --- | --- | --- | --- | --- | --- | --- | --- | --- | --- | --- |
| Nc1ncnc2c1nc(Cl)n2C1OC2COP(=O)(O)OC2C1O (stereo not given) | > 300 | > 300 | > 300 | > 283 | > 300 | > 300 | 153 µM and > 100 µM | > 300 | > 300 | > 300 | – | – | – | – | – | – | – | – | – | – |
| N[C@@H]1CCCC[C@H]1N.O=C([O-])C(=O)[O-].[Pt+4] | 43.6 | 32.7 | 15.2 | 21.2 | > 100 | 23.5 | 39.3 µM | 35.9 | > 81.1 | > 83.8 | 8.47 | 4.85 | 1.76 | 0.671 | 4.71 | 2.2 | 0.765 | 1.85 | 10.7 | 10 |
| COc1cc(-c2nn(-c3cccc(NC(=O)Nc4cc(C(F)(F)F)cc(C(F)(F)F)c4)c3)cc2-c2ccncc2)ccc1Cl | 1.52 | 2.13 | 3.94 | 3.54 | 0.921 | 1.5 | 2.93 µM | 2.34 | 2.21 | 1.75 | 0.612 | 0.587 | 0.59 | 1.09 | 0.241 | 0.496 | 0.852 | 0.592 | 0.755 | 0.836 |
| O=C(CC1(O)C(=O)Nc2c(Cl)ccc(Cl)c21)c1ccc2ccccc2c1 (stereo not given) | 34.9 | 34.7 | 27 | 39.5 | 27.7 | 10.7 | 16.5 µM | 41.4 | 25.3 | 35.5 | – | – | – | – | – | – | – | – | – | – |
| N#Cc1c(NN)nc(NN)c(C#N)c1-c1ccccc1 | > 100 | > 100 | > 100 | > 100 | > 100 | > 100 | > 100 µM | > 100 | > 100 | > 100 | – | – | – | – | – | – | – | – | – | – |
| COC1CC2CCC(C)C(O)(O2)C(=O)C(=O)N2CCCCC2C(=O)OC(C(C)CC2CCC(O)C(OC)C2)CC(=O)C(C)C=C(C)C(O)C(OC)C(=O)C(C)CC(C)/C=C/C=C/C=C1C (stereo not given) | 8.08 | 6.86 | 15.5 | 14.3 | 7.76 | 11.6 | 47.8 µM | 11.8 | 12.5 | 11 | < 0.005 | < 0.005 | 0.0688 | 6.41 | < 0.005 | 0.0265 | 2.58 | < 0.005 | 4.46 | < 0.005 |
| Oc1cc(O)c2c(-c3c(O)c(-c4ccc(O)c(O)c4)[o+]c4cc(O)cc(O)c34)c(O)c(-c3ccc(O)c(O)c3)[o+]c2c1 | 78.3 | > 100 | > 100 | > 100 | > 100 | 46.7 | 95.6 µM | > 100 | > 100 | 50.3 | – | – | – | – | – | – | – | – | – | – |
| Cn1c(=O)nc2n(-c3cccc(Br)c3)c3ccccc3nc-2c1=O | 26.3 | 22.1 | 4.91 | 26.1 | 18.6 | 3.27 | 32.7 µM | 23.7 | 6.58 | 18.2 | – | – | – | – | – | – | – | – | – | – |
| O=C(c1ccco1)c1nc2cc(Cl)ccc2[n+]([O-])c1C(F)(F)F | > 100 | > 100 | > 100 | > 100 | > 100 | > 100 | 73.9 µM | > 100 | 32.9 | > 100 | > 100 | > 100 | 42 | > 100 | 94 | 40.7 | 28.3 | 54.5 | 4.07 | > 100 |
| O=c1cc2ccccc2nn1Cc1cccc(Cl)c1 | > 100 | > 100 | > 100 | > 100 | > 100 | > 100 | > 100 µM | > 100 | > 100 | > 100 | – | – | – | – | – | – | – | – | – | – |
| O=C1NC(=O)C2C(=O)NC(=O)C1C2(c1ccccc1)c1cc[nH]c1 (stereo not given) | > 100 | > 100 | > 100 | > 100 | > 100 | > 100 | > 100 µM | > 100 | > 100 | > 100 | – | – | – | – | – | – | – | – | – | – |
| Cc1cc2nc3c4cc(N)ccc4n(CCN(C)C)c3nc2cc1C | 4.8 | 2.32 | 3.73 | 9.66 | 4.03 | 2.75 | 6.28 µM | 4.62 | 5.14 | 4.66 | 0.439 | 0.763 | 0.981 | 0.914 | 0.705 | 0.824 | 0.462 | 0.5 | 1.21 | 0.839 |
| Cc1ccccc1C(=O)c1ccccc1O | > 100 | > 100 | > 100 | > 100 | > 100 | > 100 | > 100 µM | > 100 | > 100 | > 100 | – | – | – | – | – | – | – | – | – | – |
| CC(=O)[CH-]C(=O)c1ccccc1.CC(=O)[CH-]C(=O)c1ccccc1.CC(C)CCCC(C)[C@H]1CCC2[C@@H]3CC=C4C[C@@H]([O-])CC[C@]4(C)C3CC[C@@]21C.CC[O-].[Ti+4] (stereo not given in full) | > 100 | > 100 | 84.2 | > 100 | > 100 | > 100 | > 100 µM | > 100 | > 100 | > 100 | 29.4 | 53.1 | 26.9 | > 100 | 40.9 | 82.3 | > 100 | > 100 | 60.3 | 34.1 |
| COC(=O)C(=O)OC1(C(C)=O)CC2(c3ccccc3)OC1(c1ccccc1)c1ccccc12 (stereo not given) | 29.9 | 33.4 | 33.3 | 63 | 31.4 | 28.1 | 39.9 µM | 41.4 | 31.6 | 26.7 | – | – | – | – | – | – | – | – | – | – |
| CC1(C)N=C(N)N=C(N)N1c1ccc(OCCCCOc2ccc(S(=O)(=O)F)cc2)c(Cl)c1 | > 100 | 19.9 | 19.5 | 22.7 | 11.5 | 18 | > 47.2 µM | 21.8 | 14.1 | 8.39 | 24.4 | 1.1 | 0.115 | 0.302 | 0.286 | 0.0534 | 3.7 | 0.0602 | 0.581 | 0.398 |
| CCC/C(=N/NC(=O)C(N)=O)C(CC)C(=O)CCC(=O)N(Cc1ccccc1)Cc1ccccc1 (stereo not given) | > 100 | > 100 | > 100 | > 100 | > 100 | > 100 | > 100 µM | > 100 | > 100 | > 100 | – | – | – | – | – | – | – | – | – | – |
| CC(C)c1ccc(C2C3=C(N=C4SCC(=O)N42)C(=O)c2ccccc23)cc1 (stereo not given) | > 100 | > 100 | > 100 | > 100 | > 100 | > 100 | > 100 µM | > 100 | > 100 | > 100 | – | – | – | – | – | – | – | – | – | – |
| NC(N)=N/N=C\c1cccc(OCc2ccccc2)c1 | 27.9 | 23.5 | 27.6 | 33.7 | 20.4 | 3.45 | 22.2 µM | 23.8 | 4.07 | 20 | 7.35 | 11.4 | 11.7 | 11.5 | 4.64 | 1.67 | 7.5 | 6.07 | 1.82 | 5.11 |
| Cc1ccccc1N=Nc1ccc(NC(=O)c2ccnn2C)c(C)c1 | > 100 | 42.6 | > 100 | > 100 | > 100 | > 100 | > 100 µM | > 100 | > 100 | > 100 | 11.2 | 13.2 | 18.7 | > 100 | 23.9 | 97.2 | 55.4 | 25.1 | 49 | 36.5 |
| O=C(CNc1ccc2c(c1)C(=O)c1ccccc1C2=O)Nc1ccc2c(c1)C(=O)c1ccccc1C2=O | 3.1 | 3.16 | 1.09 | 3.4 | 2.89 | 1.95 | 3.03 µM | 2.7 | 2.99 | 3.46 | 1.67 | 1.62 | 0.304 | 1.84 | 1.46 | 0.631 | 1.5 | 0.681 | 1.49 | 1.78 |
| COc1cc(/C=C(\C#N)C(=O)c2ccccc2)ccc1O | > 100 | > 100 | > 100 | > 100 | > 100 | > 100 | > 100 µM | > 100 | > 100 | > 100 | – | – | – | – | – | – | – | – | – | – |
| CC1=C2C[C@H]3[C@@H](CC[C@@H]4CC(NS(C)(=O)=O)CC[C@@]43C)[C@@H]2CC[C@@]2(C1)O[C@@H]1C[C@H](C)CN[C@H]1[C@H]2C (stereo not given in full) | 23.5 | 26.8 | 33.2 | 27.5 | 26.1 | 21.8 | 22 µM | 26 | 18.9 | 25.9 | 10.7 | 13.2 | 16.3 | 13.7 | 12.5 | 9.27 | 7.63 | 11.9 | 6.28 | 12.9 |
| O=C(/C=C/c1cccnc1)NCCCCC1CCCN(C(=O)c2ccccc2)C1 (stereo not given) | > 100 | > 100 | > 100 | > 100 | > 87.1 | > 100 | > 100 µM | > 100 | > 100 | > 100 | > 62.8 | > 61.1 | 30.3 | – | < 0.0474 | > 90.6 | 9 | 0.0615 | > 76.8 | < 0.01 |
| CCOC(=O)N1CCc2cc(OC)c(OC)c3c2c1cc1cc(OC)c(OC)cc13 | > 100 | 14.7 | 55.6 | > 100 | 35.2 | 63 | 84.2 µM | > 100 | > 81.7 | 9.17 | – | – | – | – | – | – | – | – | – | – |
| COc1cc2cc(Oc3ccc(NC(=O)Nc4cccc(C(F)(F)F)c4)cc3)c(C)nc2cc1OC | 10.8 | 4.95 | 7.41 | 13 | 3.59 | 10.9 | 4.29 µM | 24.9 | 3.66 | 8.74 | 1.98 | 1.29 | 1.7 | 3.02 | 1.13 | 1.84 | 1.32 | 2.95 | 1.09 | 2.48 |
| O=[N+]([O-])c1nccn1CC(O)CN1CC1 (stereo not given) | > 100 | > 100 | > 100 | > 100 | > 100 | > 100 | > 100 µM | > 100 | > 100 | > 100 | – | – | – | – | – | – | – | – | – | – |
| C/C(=N\Nc1cc(C)c2cc(C)ccc2n1)c1ccccn1 | 0.322 | 3.68 | 10.2 | 2.08 | 0.278 | 0.375 | 0.261 µM | 0.425 | 0.312 | 0.263 | < 0.0447 | 0.134 | 0.139 | – | – | 0.0794 | – | – | 0.0818 | 0.0573 |
| C[S+](C)CCOC(=O)C(=[N+]=[N-])c1ccc([N+](=O)[O-])cc1 | > 100 | > 100 | > 100 | > 100 | > 100 | > 100 | > 100 µM | > 100 | > 100 | > 100 | – | – | – | – | – | – | – | – | – | – |
| O=c1c2ccccc2n(C[C@H]2CO2)c2ccccc12 | 4.96 | 6.57 | 4.52 | 6.41 | 9.44 | 3.11 | 8.26 µM | 5.6 | 4.46 | 3.68 | 1.72 | 2.62 | 1.42 | 2.44 | 2.91 | 1.59 | 1.83 | 1.53 | 2.1 | 1.77 |
